Experimental data from article PMC7557147 (Biochemical Journal, 2020).

Assays:
TgAPN2 [1] = molecular target: T1, TgAPN2 (Toxoplasma gondii, UniProt S8G5K8, N1303Q/N840Q); format: biochemical, Toxoplasma gondii ME49; conditions: relative to hArg = 100%; 10 µM ACC substrate, 0.5 nM enzyme
TgAPN2 [2] = molecular target: T1, TgAPN2; assay: TgAPN2 aminopeptidase activity under chelating conditions; format: biochemical, Toxoplasma gondii ME49; conditions: increasing EDTA concentration (0–200 mM); 20 nM enzyme, 15 µM substrate
TgAPN2 [3] = molecular target: T1, TgAPN2; assay: Michaelis-Menten kinetics of TgAPN2 with fluorogenic Mec substrates; format: biochemical, Toxoplasma gondii ME49; conditions: substrate of TgAPN2, 20 nM enzyme, 37°C, pH 8.0
recombinant TgAPN2 = conditions: ref [14]; cited from earlier work

N=C(N)NCCC[C@H](N)C(=O)O [Arg]
normalised relative activity of TgAPN2 toward P1 substrate (TgAPN2 [1]): 81%

O=C(O)CN(CCN(CC(=O)O)CC(=O)O)CC(=O)O [EDTA]
effect on TgAPN2 enzyme velocity (TgAPN2 [2]): reduction in enzyme velocity

Cc1cc(=O)oc2cc(NC(=O)[C@@H](N)CCCNC(=N)N)ccc12.Cl [L-Arg-Mec, L-arginine-7-amido-4-methylcoumarin hydrochloride]
Km (TgAPN2 [3]): 148 ± 5.1 µM | kcat (TgAPN2 [3]): 1017 ± 15.2 s⁻¹ | kcat (TgAPN2 [3]; listed as Arg-Mec): 1017 s⁻¹

Cc1cc(=O)oc2cc(NC(=O)[C@@H](N)CC(C)C)ccc12.Cl [L-Leu-Mec, L-leucine-7-amido-4-methylcoumarin hydrochloride]
Km (TgAPN2 [3]): 31.8 ± 3 µM | kcat (TgAPN2 [3]): 1.32 ± 0.03 s⁻¹ | kcat (TgAPN2 [3]; listed as Leu-Mec): 1.32 s⁻¹

CC(C)C[C@H](N)C(=O)O [Leu]
normalised relative activity of TgAPN2 toward P1 substrate (TgAPN2 [1]): 26%

NCCCC[C@H](N)C(=O)O [Lys]
normalised relative activity of TgAPN2 toward P1 substrate (TgAPN2 [1]): 52%

CC(C)C[C@@H](N)[C@H](O)C(=O)N[C@H](C(=O)N[C@H](C(=O)N[C@@H](CC(=O)O)C(=O)O)C(C)C)C(C)C [amastatin]
inhibition of recombinant TgAPN2 (in words) (recombinant TgAPN2): inhibited

CC(C)C[C@H](NC(=O)[C@@H](O)[C@H](N)Cc1ccccc1)C(=O)O [bestatin]
inhibition of recombinant TgAPN2 (in words) (recombinant TgAPN2): inhibited

NC(N)=NCCCC[C@H](N)C(=O)O [hArg, Homo-arginine]
normalised relative activity of TgAPN2 toward P1 substrate (TgAPN2 [1]): 100%

N[C@@H](CCc1ccccc1)C(=O)O [hPhe]
normalised relative activity of TgAPN2 toward P1 substrate (TgAPN2 [1]): 18%

N[C@@H](CCc1ccc(O)cc1)C(=O)O [hTyr]
normalised relative activity of TgAPN2 toward P1 substrate (TgAPN2 [1]): 54%
